Results reported in patent publication US8450313B2, “2,3-diaryl- or heteroaryl-substituted 1,1,1-trifluoro-2-hydroxypropyl compounds” (Hoffmann-La Roche Inc., priority 2009, dated 2013).

Target: T1, full length human recombinant glucocorticoid receptor (Homo sapiens, UniProt P04150)
T1 construct: It contains some partially purified full length human recombinant glucocorticoid receptor; purchased Panvera/Invitrogen PV4302
T1 sequence (P04150 1-777): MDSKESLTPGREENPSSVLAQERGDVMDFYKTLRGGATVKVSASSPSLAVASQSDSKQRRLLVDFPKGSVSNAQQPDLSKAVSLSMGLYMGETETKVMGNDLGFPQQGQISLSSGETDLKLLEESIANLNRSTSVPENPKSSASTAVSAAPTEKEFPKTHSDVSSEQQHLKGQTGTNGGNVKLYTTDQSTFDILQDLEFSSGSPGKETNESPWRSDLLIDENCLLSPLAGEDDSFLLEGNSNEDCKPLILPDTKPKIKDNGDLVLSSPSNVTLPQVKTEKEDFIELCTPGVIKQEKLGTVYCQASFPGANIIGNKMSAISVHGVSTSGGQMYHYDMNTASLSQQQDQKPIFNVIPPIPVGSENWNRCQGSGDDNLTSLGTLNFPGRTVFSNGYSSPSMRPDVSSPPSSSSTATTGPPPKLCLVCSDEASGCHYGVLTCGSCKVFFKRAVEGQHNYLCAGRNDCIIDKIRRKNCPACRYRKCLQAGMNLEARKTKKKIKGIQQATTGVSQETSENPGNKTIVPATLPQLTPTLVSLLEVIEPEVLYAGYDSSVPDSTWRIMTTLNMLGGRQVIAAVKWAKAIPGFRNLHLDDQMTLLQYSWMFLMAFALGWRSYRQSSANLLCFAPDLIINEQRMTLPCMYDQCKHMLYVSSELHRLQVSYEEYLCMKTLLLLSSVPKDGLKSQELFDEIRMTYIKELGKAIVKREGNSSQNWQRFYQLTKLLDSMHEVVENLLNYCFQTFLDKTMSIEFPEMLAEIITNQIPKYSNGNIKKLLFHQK
Test: Glucocorticoid Receptor Binding Assay (Glucocorticoid Receptor Competitor Assay far red kit, fluorescence polarization)
Details: competition with fluorescent GR ligand Fluormone GS Far Red, 3 hours at 22° C., pH 7.4; Ki calculated from IC50 by Cheng-Prusoff
Summary of the method: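 Compounds in serial dilution (from intermediate 4.2% DMSO stock) displace Fluormone GS Far Red from full-length human recombinant GR with stabilizing peptide, pH 7.4, incubated 3 hours at 22° C dark. Polarized fluorescence (610–660 nm) gives IC50 via sigmoidal fit, converted to Ki by Cheng-Prusoff.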

| SMILES | Ki |
| --- | --- |
| C[C@H](c1ccc(Oc2ccc(F)c(C(=O)O)c2)cc1Cl)[C@@](O)(c1ccc2c(c1)OCC(=O)N2C)C(F)(F)F (relative stereo) [Example 167, 5-{3-Chloro-4-[3,3,3-trifluoro-2-hydroxy-1-methyl-2-(4-methyl-3-oxo-3,4-dihydro-2H-benzo[1,4]oxazin-7-yl)-propyl]phenoxy}-2-fluoro-benzoic acid] | 3.1 nM |
| C[C@H](c1ccc(-c2ccc(C(=O)O)c(F)c2)cc1Cl)[C@@](O)(c1ccc2c(c1)N(C)C(=O)C(C)(C)O2)C(F)(F)F (relative stereo) [Example 168, 3′-Chloro-3-fluoro-4′-[3,3,3-trifluoro-2-hydroxy-1-methyl-2-(2,2,4-trimethyl-3-oxo-3,4-dihydro-2H-benzo[1,4]oxazin-6-yl)-propyl]-biphenyl-4-carboxylic acid] | 609 nM |
| C[C@H](c1ccc(Oc2ccc(C(=O)O)cn2)cc1Cl)[C@@](O)(c1ccc2c(c1)OCC(=O)N2C)C(F)(F)F (relative stereo) [Example 169, 6-{3-Chloro-4-[3,3,3-trifluoro-2-hydroxy-1-methyl-2-(4-methyl-3-oxo-3,4-dihydro-2H-benzo[1,4]oxazin-7-yl)-propyl]-phenoxy}-nicotinic acid] | 28.2 nM |
| C[C@H](c1ccc(O)cc1Cl)[C@@](O)(c1ccc2oc(=O)n(C)c2c1)C(F)(F)F (relative stereo) [Example 172, 5-[2-(2-Chloro-4-hydroxy-phenyl)-1-hydroxy-1-trifluoromethyl-propyl]-3-methyl-3H-benzooxazol-2-one] | 0.6 nM |
| C[C@H](c1ccc(Oc2ccc(C(=O)O)c(Cl)c2)cc1Cl)[C@@](O)(c1ccc2oc(=O)n(C)c2c1)C(F)(F)F (relative stereo) [Example 173, 2-Chloro-4-{3-chloro-4-[3,3,3-trifluoro-2-hydroxy-1-methyl-2-(3-methyl-2-oxo-2,3-dihydro-benzooxazol-5-yl)-propyl]-phenoxy}-benzoic acid] | 1.1 nM |
| COC(=O)c1ccc(Oc2ccc([C@@H](C)[C@@](O)(c3ccc4oc(=O)n(C)c4c3)C(F)(F)F)c(Cl)c2)nc1 (relative stereo) [Example 174, 6-{3-Chloro-4-[3,3,3-trifluoro-2-hydroxy-1-methyl-2-(3-methyl-2-oxo-2,3-dihydro-benzooxazol-5-yl)-propyl]-phenoxy}-nicotinic acid methyl ester] | 2 nM |
| COC(=O)c1cnc(Oc2ccc([C@@H](C)[C@@](O)(c3ccc4oc(=O)n(C)c4c3)C(F)(F)F)c(Cl)c2)c(Cl)c1 (relative stereo) [Example 175, 5-Chloro-6-{3-chloro-4-[3,3,3-trifluoro-2-hydroxy-1-methyl-2-(3-methyl-2-oxo-2,3-dihydro-benzooxazol-5-yl)-propyl]-phenoxy}-nicotinic acid methyl ester] | 1.8 nM |
| COC(=O)c1ccc(Oc2ccc([C@@H](C)[C@@](O)(c3ccc4oc(=O)n(C)c4c3)C(F)(F)F)c(Cl)c2)cc1F (relative stereo) [Example 176, 4-{3-Chloro-4-[3,3,3-trifluoro-2-hydroxy-1-methyl-2-(3-methyl-2-oxo-2,3-dihydro-benzooxazol-5-yl)-propyl]-phenoxy}-2-fluoro-benzoic acid methyl ester] | 1.7 nM |
| C[C@H](c1ccc(-c2ccc(F)c(C(=O)O)c2)cc1Cl)[C@@](O)(c1ccc2c(c1)oc(=O)n2C)C(F)(F)F (relative stereo) [Example 178, 3′-Chloro-4-fluoro-4′-[3,3,3-trifluoro-2-hydroxy-1-methyl-2-(3-methyl-2-oxo-2,3-dihydro-benzooxazol-6-yl)-propyl]-biphenyl-3-carboxylic acid] | 114 nM |
| COC(=O)c1cnc(Oc2ccc([C@@H](C)[C@@](O)(c3ccc4oc(=O)n(C)c4c3)C(F)(F)F)c(Cl)c2)cc1Cl (relative stereo) [Example 183, 4-Chloro-6-{3-chloro-4-[3,3,3-trifluoro-2-hydroxy-1-methyl-2-(3-methyl-2-oxo-2,3-dihydro-benzooxazol-5-yl)-propyl]-phenoxy}-nicotinic acid methyl ester] | 3 nM |
| C[C@H](c1ccc(Oc2ccc(C(=O)O)c(Cl)n2)cc1Cl)[C@@](O)(c1ccc2oc(=O)n(C)c2c1)C(F)(F)F (relative stereo) [Example 184, 2-Chloro-6-{3-chloro-4-[3,3,3-trifluoro-2-hydroxy-1-methyl-2-(3-methyl-2-oxo-2,3-dihydro-benzooxazol-5-yl)-propyl]-phenoxy}-nicotinic acid] | 0.8 nM |
| C[C@H](c1ccc(Oc2cc(Cl)c(C(=O)O)cn2)cc1Cl)[C@@](O)(c1ccc2oc(=O)n(C)c2c1)C(F)(F)F (relative stereo) [Example 185, 4-Chloro-6-{3-chloro-4-[3,3,3-trifluoro-2-hydroxy-1-methyl-2-(3-methyl-2-oxo-2,3-dihydro-benzooxazol-5-yl)-propyl]-phenoxy}-nicotinic acid] | 0.7 nM |
| COC(=O)c1cncc(-c2ccc([C@@H](C)[C@@](O)(c3ccc4oc(=O)n(C)c4c3)C(F)(F)F)c(Cl)c2)c1 (relative stereo) [Example 186, 5-{3-Chloro-4-[3,3,3-trifluoro-2-hydroxy-1-methyl-2-(3-methyl-2-oxo-2,3-dihydro-benzooxazol-5-yl)-propyl]-phenyl}-nicotinic acid methyl ester] | 1.4 nM |
| COC(=O)c1ccc(-c2ccc([C@@H](C)[C@@](O)(c3ccc4oc(=O)n(C)c4c3)C(F)(F)F)c(Cl)c2)cn1 (relative stereo) [Example 187, 5-{3-Chloro-4-[3,3,3-trifluoro-2-hydroxy-1-methyl-2-(3-methyl-2-oxo-2,3-dihydro-benzooxazol-5-yl)-propyl]-phenyl}-pyridine-2-carboxylic acid methyl ester] | 2.1 nM |
| CCOC(=O)c1cccc(-c2ccc([C@@H](C)[C@@](O)(c3ccc4oc(=O)n(C)c4c3)C(F)(F)F)c(Cl)c2)n1 (relative stereo) [Example 188, 6-{3-Chloro-4-[3,3,3-trifluoro-2-hydroxy-1-methyl-2-(3-methyl-2-oxo-2,3-dihydro-benzooxazol-5-yl)-propyl]-phenyl}-pyridine-2-carboxylic acid ethyl ester] | 2.2 nM |
| C[C@H](c1ccc(-c2ccc(C(=O)O)nc2)cc1Cl)[C@@](O)(c1ccc2oc(=O)n(C)c2c1)C(F)(F)F (relative stereo) [Example 189, 5-{3-Chloro-4-[3,3,3-trifluoro-2-hydroxy-1-methyl-2-(3-methyl-2-oxo-2,3-dihydro-benzooxazol-5-yl)-propyl]-phenyl}-pyridine-2-carboxylic acid] | 6.6 nM |
| C[C@H](c1ccc(-c2cccc(C(=O)O)n2)cc1Cl)[C@@](O)(c1ccc2oc(=O)n(C)c2c1)C(F)(F)F (relative stereo) [Example 190, 6-{3-Chloro-4-[3,3,3-trifluoro-2-hydroxy-1-methyl-2-(3-methyl-2-oxo-2,3-dihydro-benzooxazol-5-yl)-propyl]-phenyl}-pyridine-2-carboxylic acid] | 3 nM |
| C[C@H](c1ccc(-c2cncc(C(=O)O)c2)cc1Cl)[C@@](O)(c1ccc2oc(=O)n(C)c2c1)C(F)(F)F (relative stereo) [Example 191, 5-{3-Chloro-4-[3,3,3-trifluoro-2-hydroxy-1-methyl-2-(3-methyl-2-oxo-2,3-dihydro-benzooxazol-5-yl)-propyl]-phenyl}-nicotinic acid] | 1.4 nM |
| C[C@H](c1ccc(Br)cc1C(F)(F)F)[C@@](O)(c1ccc2oc(=O)n(C)c2c1)C(F)(F)F (relative stereo) [Example 193, 5-[2-(4-Bromo-2-trifluoromethyl-phenyl)-1-hydroxy-1-trifluoromethyl-propyl]-3-methyl-3H-benzooxazol-2-one] | 0.9 nM |
| C[C@H](c1ccc(-c2cncnc2)cc1Cl)[C@@](O)(c1ccc2oc(=O)n(C)c2c1)C(F)(F)F (relative stereo) [Example 194, 5-[2-(2-Chloro-4-pyrimidin-5-yl-phenyl)-1-hydroxy-1-trifluoromethyl-propyl]-3-methyl-3H-benzooxazol-2-one] | 0.7 nM |
| COC(=O)c1ccc(-c2ccc([C@@H](C)[C@@](O)(c3ccc4oc(=O)n(C)c4c3)C(F)(F)F)c(C(F)(F)F)c2)cc1F (relative stereo) [Example 198, 3-Fluoro-4′-[3,3,3-trifluoro-2-hydroxy-1-methyl-2-(3-methyl-2-oxo-2,3-dihydro-benzooxazol-5-yl)-propyl]-3′-trifluoromethyl-biphenyl-4-carboxylic acid methyl ester] | 1.7 nM |
